Measurements from patent publication US5834427A, “Casein phosphopeptide, casein containing same and process for the preparation thereof” (Han; Sang Kee, priority 1995, dated 1998).
No end group written: not given here.

B1: conventional beta-casein: conventional beta-casein fed to the second group as comparison (protein, UniProt P02666 16-224, looked up)
Beta-casein: RELEELNVPGEIVESLSSSEESITRINKKIEKFQSEEQQQTEDELQDKIHPFAQTQSLVYPFPGPIPNSLPQNIPPLTQTPVVVPPFLQPEVMGVSKVKEAMAPKHKEMPFPKYPVEPFTESQSLTLTDVENLHLPLPLLQSWMHQPHQPLPPTVMFPPQSVLSLSQSKVLPVPQKAVPYPQRDMPIQAFLLYQEPVLGPVRGPFPIIV

Assay: Efficacy test for calcium solubilizing effect in vivo (soluble calcium in small intestine contents, atomic absorption spectrometer)
Parameters: species or system Wister Rats
Conditions: for Calcium concentration in the small intestine, Lower part / Calcium concentration in the small intestine, Total / Calcium concentration in the small intestine, Upper part: measured one hour after feeding, mean ± standard deviation
Method: Efficacy test for calcium solubilizing effect In vivo
Forty Wister Rats weighing about 120 g on an average were supplied with a controlled diet consisting of 24 wt % of crude proteins, 5 wt % of crude fats, 60 wt % of starches, 5 wt % of crude fibers, 5 wt % of minerals and 1 wt % of vitamins for a week and then starved for 24 hours. The rats were divided into 4 groups, each group including 10 rats.
Rats of the first group were supplied with a controlled diet including 10 wt % of the beta-casein H for 1.5 hours.
Rats of the second group were supplied with a controlled diet including 10 wt % of a conventional beta-casein for 1.5 hours.
Rats of the third group were supplied with a controlled diet including 1 wt % of the CPP in accordance with the present invention for 1.5 hours.
Rats of the fourth group were supplied with a controlled diet including 1 wt % of the conventional CPP for 1.5 hours.
All rats were allowed to freely have the controlled diets as much as they can. One hour after the completion of the above feeding, all rats were anesthetized, and the small intestines were excised therefrom. The small intestines were washed with a saline solution and then divided into two parts, i.e, the upper part and the lower part.
Thereafter, the contents in the small intestine were isolated, homogenized and centrifugated. A calcium in the supernant was measured three times by an atomic absorption spectrometer (Perkin Elmer Co.).

[1] = CPP feed, 3rd Group (inventive CPP) over 4th Group (conventional CPP)
[2] = CPP feed, controlled diet including 1 wt % CPP for 1.5 hours
[3] = casein feed, controlled diet including 10 wt % casein for 1.5 hours

Molecule | Improvement (%) of calcium concentration, Lower part [1] | Improvement (%) of calcium concentration, Total [1] | Improvement (%) of calcium concentration, Upper part [1] | Improvement (%) of calcium concentration, Total (CPP feed, 3rd Group (inventive CPP) over 4th Group (conventional CPP), listed as present CPP) | Calcium concentration in the small intestine, Lower part [2] | Calcium concentration in the small intestine, Total [2] | Calcium concentration in the small intestine, Upper part [2] | Calcium concentration in the small intestine, Total (CPP feed, controlled diet including 1 wt % CPP for 1.5 hours, listed as present CPP) | Calcium concentration in the small intestine, Lower part [3] | Calcium concentration in the small intestine, Total [3] | Calcium concentration in the small intestine, Upper part [3]
CPP in accordance with the present invention: casein phosphopeptide of SEQ. ID NO: 1, 28 amino acids, 25th Arg of the conventional CPP substituted by Cys (RELEELNVPGEIVESLSSSEESITCINK; also: phosphorylated, sites not given here) | 29.8% | 23.1% | 7.0% | 23% | 51.02 ± 3.1 ppm | 68.20 ± 2.5 ppm | 17.18 ± 1.9 ppm | 68.20 ppm | – | – | –
B1 | – | – | – | – | – | – | – | – | 35.11 ± 2.3 ppm | 50.60 ± 2.0 ppm | 15.49 ± 1.7 ppm
